From patent US9439432B2, “Phenylisoxazoline-based compound having herbicidal activity and use thereof” (MOGHU RESEARCH CENTER LTD, priority 2011, dated 2016)

Legend:
Type in all cases: in vivo
Corn [1] = experiment: Pre-emergence treatment, phytotoxicity to corn; conditions: 500 g/ha, 4 weeks after spraying, scale 0 to 10 (0: no effects, 10: complete death)
Method: (§1) A rectangular plastic pot having a surface area of 300 cm^2 was filled with sandy loam soil and mixed bed soil which were mixed at a ratio of 1:1, and then, barnyardrass (Echinochloa crusgalli), large crabgrass (Digitaria sanguinalis), blackgrass (Alopecurus myosuroides), and annual bluegrass (Poa annua), which are grass weeds, were seeded thereto. In a pot that was prepared as described above, seeds of corn, soybean, cotton, wheat, and rice were seeded. The pots were irrigated, and one day after, chemicals were sprayed thereto. The spraying was performed by using a track sprayer (R&D Sprayer, USA) equipped with a Teejet 8002 (Spraying Systems Co., USA) nozzle, and a spraying amount was adjusted at 300 L/ha. A spraying solution was prepared by dissolving test materials or references in acetone and adding the same amount of 0.2%(v/v) tween 20 aqueous solution thereto. Application rates were 500, 250, 125, and 62.5 g/ha. The pots were placed in a greenhouse in which during day, the temperature was maintained at a temperature of 25 to 30° C., and during night, the temperature was maintained at a temperature of 15 to 25° C., and the pots were periodically irrigated. Four weeks after the spraying the test materials or References, effects and phytotoxicity of the respective weeds and crops were evaluated in a scale of 0 to 10 (0: no effects, 10: complete death), and results thereof are shown in Table 4 below.

Soybean [2] = experiment: Pre-emergence treatment, phytotoxicity to soybean; conditions: 500 g/ha, 4 weeks after spraying, scale 0 to 10 (0: no effects, 10: complete death)
Method: as §1

Cotton [3] = experiment: Pre-emergence treatment, phytotoxicity to cotton; conditions: 500 g/ha, 4 weeks after spraying, scale 0 to 10 (0: no effects, 10: complete death)
Method: as §1

Wheat [4] = experiment: Pre-emergence treatment, phytotoxicity to wheat; conditions: 500 g/ha, 4 weeks after spraying, scale 0 to 10 (0: no effects, 10: complete death)
Method: as §1

Rice [5] = experiment: Pre-emergence treatment, phytotoxicity to rice; conditions: 500 g/ha, 4 weeks after spraying, scale 0 to 10 (0: no effects, 10: complete death)
Method: as §1

Echinochloa crusgalli [6] = experiment: Pre-emergence treatment, herbicidal efficacy on barnyardgrass; conditions: 4 weeks after spraying
Method: as §1

Digitaria sanguinalis [7] = experiment: Pre-emergence treatment, herbicidal efficacy on large crabgrass; conditions: 4 weeks after spraying, scale 0 to 10
Method: as §1

Poa annua [8] = experiment: Pre-emergence treatment, herbicidal efficacy on annual bluegrass; conditions: 4 weeks after spraying, scale 0 to 10
Method: as §1

Alopecurus myosuroides [9] = experiment: Pre-emergence treatment, herbicidal efficacy on blackgrass; conditions: 4 weeks after spraying, scale 0 to 10
Method: as §1

Corn [10] = experiment: Post-emergence treatment, phytotoxicity to corn; conditions: post-emergence (about 3 leaf stage), 1,000 g/ha, 4 weeks after spraying, scale 0 to 10 (0: no effects, 10: complete death)
Method: as §1
(§2) Pots containing crops and weeds were prepared in the same manner as in Example 7, and then, in the second week in which crops and weeds entered into about 3 leaf stage, the test materials and the references were sprayed thereto in the same manner as described above. The rates were 1,000, 500, 250, and 125 g/ha. Four weeks after the spraying of the test materials or the references, herbicidal efficacy and phytotoxicity to the respective weeds and crops were evaluated in a scale of 0 to 10 (0: no effects, 10: complete death).

Soybean [11] = experiment: Post-emergence treatment, phytotoxicity to soybean; conditions: post-emergence (about 3 leaf stage), 1,000 g/ha, 4 weeks after spraying, scale 0 to 10 (0: no effects, 10: complete death)
Method: as §1, §2

Cotton [12] = experiment: Post-emergence treatment, phytotoxicity to cotton; conditions: post-emergence (about 3 leaf stage), 1,000 g/ha, 4 weeks after spraying, scale 0 to 10 (0: no effects, 10: complete death)
Method: as §1, §2

Wheat [13] = experiment: Post-emergence treatment, phytotoxicity to wheat; conditions: post-emergence (about 3 leaf stage), 1,000 g/ha, 4 weeks after spraying, scale 0 to 10 (0: no effects, 10: complete death)
Method: as §1, §2

Rice [14] = experiment: Post-emergence treatment, phytotoxicity to rice; conditions: post-emergence (about 3 leaf stage), 1,000 g/ha, 4 weeks after spraying, scale 0 to 10 (0: no effects, 10: complete death)
Method: as §1, §2

Echinochloa crusgalli [15] = experiment: Post-emergence treatment, herbicidal efficacy on barnyardgrass; conditions: 4 weeks after spraying, scale 0 to 10
Method: as §1, §2

Digitaria sanguinalis [16] = experiment: Post-emergence treatment, herbicidal efficacy on large crabgrass; conditions: 4 weeks after spraying, scale 0 to 10
Method: as §1, §2

Poa annua [17] = experiment: Post-emergence treatment, herbicidal efficacy on annual bluegrass; conditions: 4 weeks after spraying, scale 0 to 10
Method: as §1, §2

Alopecurus myosuroides [18] = experiment: Post-emergence treatment, herbicidal efficacy on blackgrass; conditions: 4 weeks after spraying, scale 0 to 10
Method: as §1, §2

[19] = system: grass weeds including barnyardrass, large crabgrass, and annual bluegrass; experiment: Pre-emergence treatment, grass weeds overall; conditions: relative to reference compounds
Method: as §1

[20] = system: barnyardgrass, large crabgrass, and annual bluegrass; experiment: Post-emergence treatment, grass weeds overall; conditions: 250 g/ha
Method: as §1, §2

[21] = 500 g/ha, scale 0 to 10 (0: no effects, 10: complete death)

SMILES: CC1(COCc2c(F)cccc2F)CC(c2ccccc2F)=NO1 (stereo not shown) [Compound 4, 5-((2,6-difluorobenzyloxy)methyl)-3-(2-fluorophenyl)-5-methyl-4,5-dihydroisoxazole]
- Phytotoxicity, Corn (Corn [1]): 4
- Phytotoxicity, Soybean (Soybean [2]): 0
- Phytotoxicity, Cotton (Cotton [3]): 1
- Phytotoxicity, Wheat (Wheat [4]): 0
- Phytotoxicity, Rice (Rice [5]): 0
- Herbicidal efficacy, Echinochloa crusgalli (Echinochloa crusgalli [6]; 62.5 g/ha, scale 0 to 10): 7
- Herbicidal efficacy, Echinochloa crusgalli (Echinochloa crusgalli [6]; 125 g/ha, scale 0 to 10): 10
- Herbicidal efficacy, Echinochloa crusgalli (Echinochloa crusgalli [6]; 250 g/ha, scale 0 to 10): 10
- Herbicidal efficacy, Echinochloa crusgalli (Echinochloa crusgalli [6]; [21]): 10
- Herbicidal efficacy, Digitaria sanguinalis (Digitaria sanguinalis [7]; 62.5 g/ha): 10
- Herbicidal efficacy, Digitaria sanguinalis (Digitaria sanguinalis [7]; 125 g/ha): 10
- Herbicidal efficacy, Digitaria sanguinalis (Digitaria sanguinalis [7]; 250 g/ha): 10
- Herbicidal efficacy, Digitaria sanguinalis (Digitaria sanguinalis [7]; 500 g/ha): 10
- Herbicidal efficacy, Poa annua (Poa annua [8]; 62.5 g/ha): 9
- Herbicidal efficacy, Poa annua (Poa annua [8]; 125 g/ha): 10
- Herbicidal efficacy, Poa annua (Poa annua [8]; 250 g/ha): 10
- Herbicidal efficacy, Poa annua (Poa annua [8]; 500 g/ha): 10
- Herbicidal efficacy, Alopecurus myosuroides (Alopecurus myosuroides [9]; 62.5 g/ha): 3
- Herbicidal efficacy, Alopecurus myosuroides (Alopecurus myosuroides [9]; 125 g/ha): 4
- Herbicidal efficacy, Alopecurus myosuroides (Alopecurus myosuroides [9]; 250 g/ha): 8
- Herbicidal efficacy, Alopecurus myosuroides (Alopecurus myosuroides [9]; 500 g/ha): 10
- Phytotoxicity, Corn (Corn [10]): 4
- Phytotoxicity, Soybean (Soybean [11]): 1
- Phytotoxicity, Cotton (Cotton [12]): 0
- Phytotoxicity, Wheat (Wheat [13]): 1
- Phytotoxicity, Rice (Rice [14]): 2
- Herbicidal efficacy, Echinochloa crusgalli (Echinochloa crusgalli [15]; post-emergence, 125 g/ha): 5
- Herbicidal efficacy, Echinochloa crusgalli (Echinochloa crusgalli [15]; post-emergence, 250 g/ha): 8
- Herbicidal efficacy, Echinochloa crusgalli (Echinochloa crusgalli [15]; post-emergence, 500 g/ha): 10
- Herbicidal efficacy, Echinochloa crusgalli (Echinochloa crusgalli [15]; post-emergence, 1,000 g/ha): 10
- Herbicidal efficacy, Digitaria sanguinalis (Digitaria sanguinalis [16]; post-emergence, 125 g/ha): 6
- Herbicidal efficacy, Digitaria sanguinalis (Digitaria sanguinalis [16]; post-emergence, 250 g/ha): 6
- Herbicidal efficacy, Digitaria sanguinalis (Digitaria sanguinalis [16]; post-emergence, 500 g/ha): 10
- Herbicidal efficacy, Digitaria sanguinalis (Digitaria sanguinalis [16]; post-emergence, 1,000 g/ha): 10
- Herbicidal efficacy, Poa annua (Poa annua [17]; post-emergence, 125 g/ha): 6
- Herbicidal efficacy, Poa annua (Poa annua [17]; post-emergence, 250 g/ha): 7
- Herbicidal efficacy, Poa annua (Poa annua [17]; post-emergence, 500 g/ha): 10
- Herbicidal efficacy, Poa annua (Poa annua [17]; post-emergence, 1,000 g/ha): 10
- Herbicidal efficacy, Alopecurus myosuroides (Alopecurus myosuroides [18]; post-emergence, 125 g/ha): 0
- Herbicidal efficacy, Alopecurus myosuroides (Alopecurus myosuroides [18]; post-emergence, 250 g/ha): 4
- Herbicidal efficacy, Alopecurus myosuroides (Alopecurus myosuroides [18]; post-emergence, 500 g/ha): 9
- Herbicidal efficacy, Alopecurus myosuroides (Alopecurus myosuroides [18]; post-emergence, 1,000 g/ha): 10
- efficacy stronger than the References [19]: about 4 times
- suppression of barnyardgrass, large crabgrass, and annual bluegrass [20]: greatly suppressed

SMILES: Cc1ccccc1C1=NOC(C)(COCc2c(F)cccc2F)C1 (stereo not shown) [Compound 1, 5-((2,6-difluorobenzyloxy)methyl)-5-methyl-3-o-tolyl-4,5-dihydroisoxazole]
- Phytotoxicity, Corn (Corn [1]): 1
- Phytotoxicity, Soybean (Soybean [2]): 0
- Phytotoxicity, Cotton (Cotton [3]): 0
- Phytotoxicity, Wheat (Wheat [4]): 0
- Phytotoxicity, Rice (Rice [5]): 0
- Herbicidal efficacy, Echinochloa crusgalli (Echinochloa crusgalli [6]; 62.5 g/ha, scale 0 to 10): 10
- Herbicidal efficacy, Echinochloa crusgalli (Echinochloa crusgalli [6]; 125 g/ha, scale 0 to 10): 10
- Herbicidal efficacy, Echinochloa crusgalli (Echinochloa crusgalli [6]; 250 g/ha, scale 0 to 10): 10
- Herbicidal efficacy, Echinochloa crusgalli (Echinochloa crusgalli [6]; [21]): 10
- Herbicidal efficacy, Digitaria sanguinalis (Digitaria sanguinalis [7]; 62.5 g/ha): 9
- Herbicidal efficacy, Digitaria sanguinalis (Digitaria sanguinalis [7]; 125 g/ha): 10
- Herbicidal efficacy, Digitaria sanguinalis (Digitaria sanguinalis [7]; 250 g/ha): 10
- Herbicidal efficacy, Digitaria sanguinalis (Digitaria sanguinalis [7]; 500 g/ha): 10
- Herbicidal efficacy, Poa annua (Poa annua [8]; 62.5 g/ha): 9
- Herbicidal efficacy, Poa annua (Poa annua [8]; 125 g/ha): 10
- Herbicidal efficacy, Poa annua (Poa annua [8]; 250 g/ha): 10
- Herbicidal efficacy, Poa annua (Poa annua [8]; 500 g/ha): 10
- Herbicidal efficacy, Alopecurus myosuroides (Alopecurus myosuroides [9]; 62.5 g/ha): 4
- Herbicidal efficacy, Alopecurus myosuroides (Alopecurus myosuroides [9]; 125 g/ha): 6
- Herbicidal efficacy, Alopecurus myosuroides (Alopecurus myosuroides [9]; 250 g/ha): 8
- Herbicidal efficacy, Alopecurus myosuroides (Alopecurus myosuroides [9]; 500 g/ha): 9
- Phytotoxicity, Corn (Corn [10]): 2
- Phytotoxicity, Soybean (Soybean [11]): 2
- Phytotoxicity, Cotton (Cotton [12]): 2
- Phytotoxicity, Wheat (Wheat [13]): 0
- Phytotoxicity, Rice (Rice [14]): 0
- Herbicidal efficacy, Echinochloa crusgalli (Echinochloa crusgalli [15]; post-emergence, 125 g/ha): 7
- Herbicidal efficacy, Echinochloa crusgalli (Echinochloa crusgalli [15]; post-emergence, 250 g/ha): 9
- Herbicidal efficacy, Echinochloa crusgalli (Echinochloa crusgalli [15]; post-emergence, 500 g/ha): 10
- Herbicidal efficacy, Echinochloa crusgalli (Echinochloa crusgalli [15]; post-emergence, 1,000 g/ha): 10
- Herbicidal efficacy, Digitaria sanguinalis (Digitaria sanguinalis [16]; post-emergence, 125 g/ha): 6
- Herbicidal efficacy, Digitaria sanguinalis (Digitaria sanguinalis [16]; post-emergence, 250 g/ha): 9
- Herbicidal efficacy, Digitaria sanguinalis (Digitaria sanguinalis [16]; post-emergence, 500 g/ha): 10
- Herbicidal efficacy, Digitaria sanguinalis (Digitaria sanguinalis [16]; post-emergence, 1,000 g/ha): 10
- Herbicidal efficacy, Poa annua (Poa annua [17]; post-emergence, 125 g/ha): 5
- Herbicidal efficacy, Poa annua (Poa annua [17]; post-emergence, 250 g/ha): 8
- Herbicidal efficacy, Poa annua (Poa annua [17]; post-emergence, 500 g/ha): 9
- Herbicidal efficacy, Poa annua (Poa annua [17]; post-emergence, 1,000 g/ha): 10
- Herbicidal efficacy, Alopecurus myosuroides (Alopecurus myosuroides [18]; post-emergence, 125 g/ha): 2
- Herbicidal efficacy, Alopecurus myosuroides (Alopecurus myosuroides [18]; post-emergence, 250 g/ha): 8
- Herbicidal efficacy, Alopecurus myosuroides (Alopecurus myosuroides [18]; post-emergence, 500 g/ha): 7
- Herbicidal efficacy, Alopecurus myosuroides (Alopecurus myosuroides [18]; post-emergence, 1,000 g/ha): 9
- efficacy stronger than the References [19]: about 8 times
- suppression of barnyardgrass, large crabgrass, and annual bluegrass [20]: greatly suppressed
